Data from patent US10383960B2, “Small molecule imaging of fungi by positron emission tomography scanning” (The United States of America, as represented by the …, priority 2013, dated 2019).

Tested on: Aspergillus
From the text: Compounds such as calcofluor can be used for visualizing a broad range of medically relevant fungi under the microscope, due to their specific nature of binding, high level fluorescence (detectable under the microscope) and low binding to patient tissue. Calcofluor is a fairly non-toxic compound that is used to dye clothes, due to its high affinity for cellulose-containing cotton fibers. It has also been used to follow ground water migration due to its fluorescent properties and low toxicity.

O=S(=O)([O-])c1cc(Nc2nc(Nc3ccccc3)nc(N(CCO)CCO)n2)ccc1C=Cc1ccc(Nc2nc(Nc3ccccc3)nc(N(CCO)CCO)n2)cc1S(=O)(=O)[O-].[Na+].[Na+] [calcofluor]
recovery of injected compound in lung tissue (in vivo): could be recovered in harvested lung tissue
fluorescent staining of fungal hyphae in lung tissue (microscope, lung tissue removed from subject infected with Aspergillus): demonstrated fluorescent fungal hyphal forms under the microscope
